The source of these data is ChEMBL document CHEMBL4184100, “Discovery of 2-arylquinazoline derivatives as a new class of ASK1 inhibitors” (Bioorg Med Chem Lett, 2018).

The structures appear in SMILES notation. In brackets after ≈: the same amount, converted by molar mass. Activity calls are given as the source filed them. The rule behind the calls is not given here.

The target in data set [1] is T1, CYP1A2 (Homo sapiens, UniProt P05177).
T1 sequence (P05177 whole entry): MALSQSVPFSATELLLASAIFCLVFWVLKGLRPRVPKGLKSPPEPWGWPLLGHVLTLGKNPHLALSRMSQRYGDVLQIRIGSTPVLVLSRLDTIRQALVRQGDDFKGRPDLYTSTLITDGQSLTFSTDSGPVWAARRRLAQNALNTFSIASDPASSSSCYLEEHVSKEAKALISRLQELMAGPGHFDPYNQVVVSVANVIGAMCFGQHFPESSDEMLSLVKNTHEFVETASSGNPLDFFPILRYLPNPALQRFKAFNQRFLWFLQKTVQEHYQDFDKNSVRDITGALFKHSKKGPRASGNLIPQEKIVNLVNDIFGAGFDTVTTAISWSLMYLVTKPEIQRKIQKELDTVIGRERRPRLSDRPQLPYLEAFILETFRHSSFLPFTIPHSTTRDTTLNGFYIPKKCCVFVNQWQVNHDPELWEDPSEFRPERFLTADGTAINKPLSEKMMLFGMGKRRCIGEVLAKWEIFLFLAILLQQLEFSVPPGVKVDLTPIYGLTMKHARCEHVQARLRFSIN
Put plainly: Inhibition of CYP1A2 (unknown origin) at 10 uM relative to control. In kind it is ADME.

Data set [2] is described as follows: Stability in rat liver microsomes. In kind it is ADME, microsome. Particulars: read-out: Stability. A general note: Liver microsomes are a subcellular fraction often used to study metabolism.
Data set [3] has as its target CYP2C9 (Homo sapiens, UniProt P11712). Nature of the data set: Inhibition of CYP2C9 (unknown origin) at 10 uM relative to control. In kind it is ADME.
Data set [4] concerns the target T2, Mitogen-activated protein kinase kinase kinase 5 (Homo sapiens, UniProt Q99683).
T2 sequence (Q99683 whole entry): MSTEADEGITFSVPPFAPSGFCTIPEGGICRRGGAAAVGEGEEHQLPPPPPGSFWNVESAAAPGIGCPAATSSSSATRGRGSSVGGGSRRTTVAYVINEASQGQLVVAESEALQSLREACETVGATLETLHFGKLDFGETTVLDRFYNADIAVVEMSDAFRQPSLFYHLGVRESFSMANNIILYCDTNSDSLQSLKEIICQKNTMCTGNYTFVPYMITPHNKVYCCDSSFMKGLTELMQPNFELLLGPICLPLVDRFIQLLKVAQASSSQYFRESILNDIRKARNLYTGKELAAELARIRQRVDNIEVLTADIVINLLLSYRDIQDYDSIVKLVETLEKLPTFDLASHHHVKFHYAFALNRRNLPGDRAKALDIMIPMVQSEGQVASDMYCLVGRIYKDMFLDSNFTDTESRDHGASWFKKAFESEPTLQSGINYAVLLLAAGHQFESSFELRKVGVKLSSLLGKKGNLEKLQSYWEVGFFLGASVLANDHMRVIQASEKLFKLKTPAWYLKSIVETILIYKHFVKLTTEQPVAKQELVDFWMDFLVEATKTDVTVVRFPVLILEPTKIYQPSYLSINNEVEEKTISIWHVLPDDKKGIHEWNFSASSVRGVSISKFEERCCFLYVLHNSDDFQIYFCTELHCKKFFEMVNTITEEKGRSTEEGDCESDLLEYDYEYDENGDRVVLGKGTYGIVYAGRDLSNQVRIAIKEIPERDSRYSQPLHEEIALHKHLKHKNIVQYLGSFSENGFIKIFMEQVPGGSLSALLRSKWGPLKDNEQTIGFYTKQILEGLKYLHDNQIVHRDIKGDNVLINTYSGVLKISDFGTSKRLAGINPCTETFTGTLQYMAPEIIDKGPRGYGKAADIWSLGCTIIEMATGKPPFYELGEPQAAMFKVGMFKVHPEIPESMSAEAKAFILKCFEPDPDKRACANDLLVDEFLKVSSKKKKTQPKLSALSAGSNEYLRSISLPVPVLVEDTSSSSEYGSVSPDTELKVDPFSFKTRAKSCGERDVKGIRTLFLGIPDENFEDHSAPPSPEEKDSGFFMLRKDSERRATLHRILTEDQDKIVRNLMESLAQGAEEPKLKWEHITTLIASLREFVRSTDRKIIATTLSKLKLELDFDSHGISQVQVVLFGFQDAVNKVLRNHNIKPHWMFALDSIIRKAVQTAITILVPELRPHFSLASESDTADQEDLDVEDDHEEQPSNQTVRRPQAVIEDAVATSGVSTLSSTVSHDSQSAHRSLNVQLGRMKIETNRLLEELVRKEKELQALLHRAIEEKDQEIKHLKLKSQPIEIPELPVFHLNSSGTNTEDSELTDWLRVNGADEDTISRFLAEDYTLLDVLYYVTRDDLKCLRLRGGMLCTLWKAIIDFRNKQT
Put plainly: Inhibition of stress-activated full length recombinant human N-terminal GST-tagged ASK1 expressed in baculovirus expression system using MKK6 as substrate pretreated for 10 mins followed by substrate addition by Alphascreen assay.

In data set [5] the target is T3, Mitogen-activated protein kinase kinase kinase 5 (Rattus norvegicus) (UniProt D3ZZH6).
T3 sequence (whole entry): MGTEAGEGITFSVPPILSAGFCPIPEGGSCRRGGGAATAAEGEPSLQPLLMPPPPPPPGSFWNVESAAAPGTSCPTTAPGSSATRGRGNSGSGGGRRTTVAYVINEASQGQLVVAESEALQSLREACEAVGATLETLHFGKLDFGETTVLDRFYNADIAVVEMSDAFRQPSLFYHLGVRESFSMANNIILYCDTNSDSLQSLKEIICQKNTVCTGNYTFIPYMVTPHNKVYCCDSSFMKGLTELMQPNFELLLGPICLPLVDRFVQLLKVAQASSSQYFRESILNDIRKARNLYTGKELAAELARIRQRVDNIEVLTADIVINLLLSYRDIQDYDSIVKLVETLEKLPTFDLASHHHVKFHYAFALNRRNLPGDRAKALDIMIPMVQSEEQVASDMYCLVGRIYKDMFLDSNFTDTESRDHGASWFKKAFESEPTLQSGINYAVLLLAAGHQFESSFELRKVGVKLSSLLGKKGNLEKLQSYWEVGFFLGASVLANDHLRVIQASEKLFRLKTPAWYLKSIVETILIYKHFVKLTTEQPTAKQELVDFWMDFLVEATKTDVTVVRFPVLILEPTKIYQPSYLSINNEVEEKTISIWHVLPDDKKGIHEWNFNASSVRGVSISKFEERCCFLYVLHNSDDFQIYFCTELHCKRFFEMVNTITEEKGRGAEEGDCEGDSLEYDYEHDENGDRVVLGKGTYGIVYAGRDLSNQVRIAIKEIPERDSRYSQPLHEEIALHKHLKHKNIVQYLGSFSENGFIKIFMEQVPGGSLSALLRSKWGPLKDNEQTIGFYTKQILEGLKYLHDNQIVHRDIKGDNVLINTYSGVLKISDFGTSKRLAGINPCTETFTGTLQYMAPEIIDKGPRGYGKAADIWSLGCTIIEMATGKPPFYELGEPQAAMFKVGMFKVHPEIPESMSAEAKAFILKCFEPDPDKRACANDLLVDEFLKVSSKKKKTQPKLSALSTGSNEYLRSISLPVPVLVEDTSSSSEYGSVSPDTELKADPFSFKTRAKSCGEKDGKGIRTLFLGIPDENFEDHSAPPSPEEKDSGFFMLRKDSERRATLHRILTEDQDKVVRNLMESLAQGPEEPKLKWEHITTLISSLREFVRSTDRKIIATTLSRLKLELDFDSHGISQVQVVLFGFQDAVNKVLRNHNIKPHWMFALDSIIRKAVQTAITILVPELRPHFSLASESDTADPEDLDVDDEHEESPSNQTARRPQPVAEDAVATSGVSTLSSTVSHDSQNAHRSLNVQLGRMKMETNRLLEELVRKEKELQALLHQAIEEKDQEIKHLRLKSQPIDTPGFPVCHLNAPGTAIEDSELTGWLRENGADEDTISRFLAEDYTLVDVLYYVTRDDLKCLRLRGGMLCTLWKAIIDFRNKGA
Put plainly: Inhibition of […] in rat INS-1E cells assessed as reduction in TNFalpha-induced […] phosphorylation at ser207 residues up to 10 uM by immunoblot analysis. In kind it is cell-based. (In general: A western blot detects proteins with antibodies after separation by electrophoresis.)

A short description of data set [6]: Solubility of the compound in phosphate buffered saline at pH 7.4. Particulars: buffer. In kind it is physicochemical.
For data set [7], the target named is CYP3A4 (Homo sapiens, UniProt P08684). Nature of the data set: Inhibition of CYP3A4 (unknown origin) at 10 uM relative to control. Type of data set: ADME.
A short description of data set [8]: Stability in mouse liver microsomes. In kind it is ADME, microsome. Particulars: read-out: Stability.
Data set [9] deals with CYP2D6 (Homo sapiens, UniProt P10635). Put plainly: Inhibition of CYP2D6 (unknown origin) at 10 uM relative to control. In kind it is ADME.
Data set [10] can be described thus: Stability in human liver microsomes. In kind it is ADME, microsome. Particulars: read-out: Stability.

CYP3A4, sequence (P08684 whole entry): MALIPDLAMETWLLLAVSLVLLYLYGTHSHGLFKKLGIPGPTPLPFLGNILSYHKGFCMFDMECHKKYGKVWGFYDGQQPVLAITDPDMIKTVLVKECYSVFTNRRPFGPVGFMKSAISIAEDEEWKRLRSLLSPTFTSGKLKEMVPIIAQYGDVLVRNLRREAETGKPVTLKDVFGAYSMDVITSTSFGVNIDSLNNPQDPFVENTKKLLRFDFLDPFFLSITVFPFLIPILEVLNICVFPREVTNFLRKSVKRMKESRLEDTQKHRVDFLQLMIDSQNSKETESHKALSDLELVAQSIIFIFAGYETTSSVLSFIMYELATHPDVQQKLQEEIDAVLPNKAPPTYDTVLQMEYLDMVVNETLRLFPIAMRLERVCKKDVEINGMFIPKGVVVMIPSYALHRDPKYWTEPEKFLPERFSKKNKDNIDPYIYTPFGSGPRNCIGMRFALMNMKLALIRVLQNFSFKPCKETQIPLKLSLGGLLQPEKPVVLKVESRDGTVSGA
CYP2D6, sequence (P10635 whole entry): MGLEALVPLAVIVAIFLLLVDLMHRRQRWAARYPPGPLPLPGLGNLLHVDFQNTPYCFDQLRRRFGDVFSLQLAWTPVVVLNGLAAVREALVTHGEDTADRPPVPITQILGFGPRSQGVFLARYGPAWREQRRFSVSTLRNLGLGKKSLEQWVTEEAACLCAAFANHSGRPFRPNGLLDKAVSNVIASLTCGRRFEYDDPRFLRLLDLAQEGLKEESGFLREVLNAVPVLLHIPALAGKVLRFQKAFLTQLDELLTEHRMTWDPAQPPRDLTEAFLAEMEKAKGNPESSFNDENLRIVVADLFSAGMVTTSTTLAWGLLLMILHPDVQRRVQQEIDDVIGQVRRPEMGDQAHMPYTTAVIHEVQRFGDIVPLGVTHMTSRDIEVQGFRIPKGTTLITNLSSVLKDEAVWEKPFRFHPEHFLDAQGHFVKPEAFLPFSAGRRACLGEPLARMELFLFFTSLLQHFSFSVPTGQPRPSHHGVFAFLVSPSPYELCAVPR
CYP2C9, sequence (P11712 whole entry): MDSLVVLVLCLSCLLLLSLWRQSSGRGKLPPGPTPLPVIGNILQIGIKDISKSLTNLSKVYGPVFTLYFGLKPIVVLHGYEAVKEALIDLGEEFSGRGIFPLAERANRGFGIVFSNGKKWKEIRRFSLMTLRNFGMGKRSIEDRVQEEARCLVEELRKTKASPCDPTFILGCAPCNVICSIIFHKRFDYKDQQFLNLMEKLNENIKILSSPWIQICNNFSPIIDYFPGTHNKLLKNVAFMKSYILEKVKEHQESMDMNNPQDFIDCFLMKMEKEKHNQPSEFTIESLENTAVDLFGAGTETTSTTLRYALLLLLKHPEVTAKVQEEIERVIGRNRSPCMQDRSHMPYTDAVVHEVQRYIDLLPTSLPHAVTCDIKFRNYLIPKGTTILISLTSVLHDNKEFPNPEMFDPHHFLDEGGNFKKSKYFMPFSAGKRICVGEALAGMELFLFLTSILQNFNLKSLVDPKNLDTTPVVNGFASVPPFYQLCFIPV

As to `CC(=O)Nc1cccc(Nc2ncc3ccccc3n2)c1`, the inhibition – broadly, the change of the read-out against control, counted positive when it falls – at 10 µM was 94% in data set [1], 20% in data set [3], -13% in data set [7] and 13% in data set [9]. For the same compound, the half-life in [2] is 4 min; in data set [8] it was 2 min; in data set [10] it was 6 min. Moreover, the IC50 (in general, the point on the concentration scale where inhibition reaches its midpoint) in data set [4] worked out at 900 nM. Further, in data set [5], the inhibition entry is “Active”. For the same compound, the solubility (usually how much of the substance goes into solution per volume) in [6] was found to be 100 µM (≈ 27.8 µg/mL).
